Target: T1, stearoyl-CoA desaturase (SCD) (Rattus norvegicus, UniProt P07308)
T1 construct: The microsomes were quickly thawed and added to assay buffer so that a concentration of 0.4 mg/ml was achieved; from tissue
T1 sequence (P07308 1-358): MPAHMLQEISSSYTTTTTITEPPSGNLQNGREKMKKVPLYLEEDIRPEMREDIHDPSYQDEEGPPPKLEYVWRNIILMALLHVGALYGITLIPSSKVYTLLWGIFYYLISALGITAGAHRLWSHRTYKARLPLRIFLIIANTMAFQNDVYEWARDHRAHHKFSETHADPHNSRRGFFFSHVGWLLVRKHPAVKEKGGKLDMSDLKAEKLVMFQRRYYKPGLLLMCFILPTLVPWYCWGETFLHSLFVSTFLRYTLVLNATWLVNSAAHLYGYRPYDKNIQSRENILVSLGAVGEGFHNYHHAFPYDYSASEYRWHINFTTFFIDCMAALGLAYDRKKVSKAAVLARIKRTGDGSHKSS
Assay: SCD assay with rat liver microsomes ([3H]stearoyl CoA, adapted from Talamo and Bloch)
Type: biochemical
Settings: Table 2 (Example 21, procedures of Example 20); rat liver microsomes, [3H]stearoyl CoA substrate
Procedure, shortened: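 Liver microsomes came from diet-induced male Sprague Dawley rats and were used at 0.2 mg/ml final. Assay buffer was Tris pH 7.2 with NADH, ATP, CoA, MgCl2 and 0.1% BSA. Compounds were preincubated 30 min, then reacted 45 min at room temperature with [3H]stearoyl-CoA; after TCA stop and Bio-Bead cleanup, supernatant radioactivity was counted by scintillation.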

Compound	IC50 [nM]
O=C(C[C@@H](O)c1ccccc1)Nc1ccc2ncn(Cc3ccc(Cl)c(Cl)c3)c(=O)c2c1 [compound 99, (R)—N-(3-(3,4-dichlorobenzyl)-4-oxo-3,4-dihydroquinazolin-6-yl)-3-hydroxy-3-phenylpropanamide]	1700
O=C(Nc1ccc2ncn(Cc3ccc(Cl)c(Cl)c3)c(=O)c2c1)[C@@H](O)c1ccccc1 [compound 100, (S)—N-(3-(3,4-dichlorobenzyl)-4-oxo-3,4-dihydroquinazolin-6-yl)-2-hydroxy-2-phenylacetamide]	2300
C[C@@H](c1ccc(Cl)c(C(F)(F)F)c1)n1cnc2ccc(NC(=O)CO)cc2c1=O [compound 102, (S)—N-(3-(1-(4-chloro-3-(trifluoromethyl)phenyl)ethyl)-4-oxo-3,4-dihydroquinazolin-6-yl)-2-hydroxyacetamide]	480
O=C(Nc1ccc2ncn(C/C=C/COc3cc(Cl)ccc3Cl)c(=O)c2c1)OCc1ccccc1 [compound 103, (E)-benzyl 3-(4-(2,5-dichlorophenoxy)but-2-enyl)-4-oxo-3,4-dihydroquinazolin-6-ylcarbamate]	380
O=C(Nc1ccc2ncn(Cc3ccc(Cl)c(Cl)c3)c(=O)c2c1)C(O)CO (stereo not drawn) [compound 106, N-(3-(3,4-dichlorobenzyl)-4-oxo-3,4-dihydroquinazolin-6-yl)-2,3-dihydroxypropanamide]	3900
O=C(O)C(=O)Nc1ccc2ncn(Cc3ccc(Cl)c(Cl)c3)c(=O)c2c1 [compound 107, 2-(3-(3,4-dichlorobenzyl)-4-oxo-3,4-dihydroquinazolin-6-ylamino)-2-oxoacetic acid]	890

From patent publication US20090105283A1, “3-HYDROQUINAZOLIN-4-ONE DERIVATIVES FOR USE AS STEAROYL CoA DESATURASE INHIBITORS” (priority 2007, published 2009)
